Patent publication US12569509B2, “Method and composition for preventing and treating viral infections” (priority 2017, dated 2026)
Where “and” joins values, the source holds several entries; their conditions need not be identical. Equal values may be shown once.

What was measured:
human PBMC = assay: LPS stimulated cytokine secretion in human PBMC pretreated with compounds (Phase 2); type: cell-based; parameters: TNF-α concentration in supernatant / IL-1β concentration in supernatant / IL-6 concentration in supernatant / IL-2 concentration in supernatant / IFN-g concentration in supernatant: unit of the concentration uncertain; settings: for IL-1β Mean Fold-Change (Relative to LPS alone) / IL-6 Mean Fold-Change (Relative to LPS alone) / TNF-α Mean Fold-Change (Relative to LPS alone): 1 ng/mL LPS stimulation for 8 hours, means from 3 donors; for IL-2 concentration in supernatant / TNF-α concentration in supernatant / IL-1β concentration in supernatant / IFN-g concentration in supernatant / IL-6 concentration in supernatant: 8-hour 1 ng/mL LPS stimulation; for IL-2 concentration in supernatant: LLOQ = 1.698 pg/mL; for TNF-α concentration in supernatant: LLOQ = 2.018 pg/mL; for IL-1β concentration in supernatant: LLOQ = 2.299 pg/mL; for IFN-g concentration in supernatant: LLOQ = 2.792 pg/mL; for IL-6 concentration in supernatant: LLOQ = 0.831; for Effect on LPS stimulated cytokine secretion: any conditions tested
From the text: Results are represented as fold-change relative to LPS treatment alone for each cytokine calculated by means from 3 separate donors.
RPMI medium alone, RPMI supplemented with 0.2% DMSO (to mimic treatment conditions) or LPS stimulation alone were used as controls.
Except for the two negative control conditions, all 3 donors responded to all experimental conditions tested with the secretion of TNF-α, IL-1β, and IL-6 albeit with a high degree of variability.

RecQ helicase = target: T1, RecQ helicase (Escherichia coli, UniProt P15043); assay: Cell-free fluorescence molecular beacon helicase assay; type: biochemical, E. coli; parameters: Average rate of reaction / Rate (Triplicate): unit: RFU/min; settings: for Average rate of reaction: mean of triplicate; for Rate (Triplicate): rate of reaction=(F0-F35)/35; for Fluorescence at 35 minutes, Run 2 / Fluorescence at time 0, Run 2: duplicate, listed as M; for Change in helicase activity compared to the DMSO control: any of the tested concentrations (0.06-200 μg/mL)
T1 construct: a full-length E. coli helicase, RecQ, was used

[1] = TA 0.2 μg/mL (plate column 5, wells A-C)
[2] = TA 2 μg/mL (plate column 7, wells A-C)
[3] = TA 6 μg/mL (plate column 8, wells A-C)
[4] = TA 200 μg/mL (plate column 11, wells A-C)
[5] = TA 200 + Buffer (plate column 12, wells A-C)

T1 sequence (P15043 whole entry): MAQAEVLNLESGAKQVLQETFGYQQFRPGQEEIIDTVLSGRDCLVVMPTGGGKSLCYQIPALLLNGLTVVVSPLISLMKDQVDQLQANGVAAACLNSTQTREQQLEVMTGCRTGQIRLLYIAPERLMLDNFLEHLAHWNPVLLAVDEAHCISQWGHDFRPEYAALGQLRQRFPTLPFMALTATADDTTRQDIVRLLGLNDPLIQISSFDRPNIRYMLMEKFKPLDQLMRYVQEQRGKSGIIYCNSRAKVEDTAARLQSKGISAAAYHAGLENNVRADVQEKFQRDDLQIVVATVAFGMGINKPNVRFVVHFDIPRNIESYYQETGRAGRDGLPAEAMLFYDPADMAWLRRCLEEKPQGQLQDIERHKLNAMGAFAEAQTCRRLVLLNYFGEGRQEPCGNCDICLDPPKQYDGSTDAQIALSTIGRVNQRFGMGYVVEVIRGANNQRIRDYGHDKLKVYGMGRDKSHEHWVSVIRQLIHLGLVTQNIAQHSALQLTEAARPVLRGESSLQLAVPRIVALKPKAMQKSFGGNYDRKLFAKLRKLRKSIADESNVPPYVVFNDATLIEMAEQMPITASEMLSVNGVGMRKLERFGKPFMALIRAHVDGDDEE

Structure (SMILES): O=c1c(O)c(-c2cc(O)c(O)c(O)c2)oc2cc(O)cc(O)c12 [Myricetin]
- IL-1β Mean Fold-Change (Relative to LPS alone) (human PBMC; 10 mM (so in the source)): 1.10
- IL-6 Mean Fold-Change (Relative to LPS alone) (human PBMC; 10 mM (so in the source)): 0.97
- TNF-α Mean Fold-Change (Relative to LPS alone) (human PBMC; 10 mM (so in the source)): 0.90
- IL-1β Mean Fold-Change (Relative to LPS alone) (human PBMC; 100 mM (so in the source)): 1.09
- IL-6 Mean Fold-Change (Relative to LPS alone) (human PBMC; 100 mM (so in the source)): 0.88
- TNF-α Mean Fold-Change (Relative to LPS alone) (human PBMC; 100 mM (so in the source)): 0.93
- IL-1β Mean Fold-Change (Relative to LPS alone) (human PBMC; 200 mM (so in the source)): 0.98
- IL-6 Mean Fold-Change (Relative to LPS alone) (human PBMC; 200 mM (so in the source)): 0.75
- TNF-α Mean Fold-Change (Relative to LPS alone) (human PBMC; 200 mM (so in the source)): 0.86
- IL-2 concentration in supernatant (human PBMC; Donor 1, 10 (unit uncertain)): <LLOQ
- TNF-α concentration in supernatant (human PBMC; Donor 1, 10 (unit uncertain)): 1496.9 pg/mL
- IL-1β concentration in supernatant (human PBMC; Donor 1, 10 (unit uncertain)): 3079.47 pg/mL
- IFN-g concentration in supernatant (human PBMC; Donor 1, 10 (unit uncertain)): <LLOQ
- IL-6 concentration in supernatant (human PBMC; Donor 1, 10 (unit uncertain)): 884.11 pg/mL
- IL-2 concentration in supernatant (human PBMC; Donor 1, 100 (unit uncertain)): <LLOQ
- TNF-α concentration in supernatant (human PBMC; Donor 1, 100 (unit uncertain)): 1251.59 pg/mL
- IL-1β concentration in supernatant (human PBMC; Donor 1, 100 (unit uncertain)): 2858.12 pg/mL
- IFN-g concentration in supernatant (human PBMC; Donor 1, 100 (unit uncertain)): <LLOQ
- IL-6 concentration in supernatant (human PBMC; Donor 1, 100 (unit uncertain)): 767.01 pg/mL
- IL-2 concentration in supernatant (human PBMC; Donor 1, 200 (unit uncertain)): <LLOQ
- TNF-α concentration in supernatant (human PBMC; Donor 1, 200 (unit uncertain)): 1811.82 pg/mL
- IL-1β concentration in supernatant (human PBMC; Donor 1, 200 (unit uncertain)): 2923.92 pg/mL
- IFN-g concentration in supernatant (human PBMC; Donor 1, 200 (unit uncertain)): <LLOQ
- IL-6 concentration in supernatant (human PBMC; Donor 1, 200 (unit uncertain)): 781.22 pg/mL
- IL-2 concentration in supernatant (human PBMC; Donor 2, 10 (unit uncertain)): <LLOQ
- TNF-α concentration in supernatant (human PBMC; Donor 2, 10 (unit uncertain)): 1006.28 pg/mL
- IL-1β concentration in supernatant (human PBMC; Donor 2, 10 (unit uncertain)): 2517.48 pg/mL
- IFN-g concentration in supernatant (human PBMC; Donor 2, 10 (unit uncertain)): <LLOQ
- IL-6 concentration in supernatant (human PBMC; Donor 2, 10 (unit uncertain)): 685.49 pg/mL
- IL-2 concentration in supernatant (human PBMC; Donor 2, 100 (unit uncertain)): <LLOQ
- TNF-α concentration in supernatant (human PBMC; Donor 2, 100 (unit uncertain)): 1597.26 pg/mL
- IL-1β concentration in supernatant (human PBMC; Donor 2, 100 (unit uncertain)): 3046.49 pg/mL
- IFN-g concentration in supernatant (human PBMC; Donor 2, 100 (unit uncertain)): <LLOQ
- IL-6 concentration in supernatant (human PBMC; Donor 2, 100 (unit uncertain)): 833.84 pg/mL
- IL-2 concentration in supernatant (human PBMC; Donor 2, 200 (unit uncertain)): <LLOQ
- TNF-α concentration in supernatant (human PBMC; Donor 2, 200 (unit uncertain)): 1021.2 pg/mL
- IL-1β concentration in supernatant (human PBMC; Donor 2, 200 (unit uncertain)): 2501.45 pg/mL
- IFN-g concentration in supernatant (human PBMC; Donor 2, 200 (unit uncertain)): <LLOQ
- IL-6 concentration in supernatant (human PBMC; Donor 2, 200 (unit uncertain)): 649.98 pg/mL
- IL-2 concentration in supernatant (human PBMC; Donor 3, 10 (unit uncertain)): <LLOQ
- TNF-α concentration in supernatant (human PBMC; Donor 3, 10 (unit uncertain)): 4121.89 pg/mL
- IL-1β concentration in supernatant (human PBMC; Donor 3, 10 (unit uncertain)): 3880.95 pg/mL
- IFN-g concentration in supernatant (human PBMC; Donor 3, 10 (unit uncertain)): <LLOQ
- IL-6 concentration in supernatant (human PBMC; Donor 3, 10 (unit uncertain)): 685.49 pg/mL
- IL-2 concentration in supernatant (human PBMC; Donor 3, 100 (unit uncertain)): <LLOQ
- TNF-α concentration in supernatant (human PBMC; Donor 3, 100 (unit uncertain)): 3225.93 pg/mL
- IL-1β concentration in supernatant (human PBMC; Donor 3, 100 (unit uncertain)): 3293.89 pg/mL
- IFN-g concentration in supernatant (human PBMC; Donor 3, 100 (unit uncertain)): <LLOQ
- IL-6 concentration in supernatant (human PBMC; Donor 3, 100 (unit uncertain)): 833.84 pg/mL
- IL-2 concentration in supernatant (human PBMC; Donor 3, 200 (unit uncertain)): <LLOQ
- TNF-α concentration in supernatant (human PBMC; Donor 3, 200 (unit uncertain)): 2528.98 pg/mL
- IL-1β concentration in supernatant (human PBMC; Donor 3, 200 (unit uncertain)): 2756.81 pg/mL
- IFN-g concentration in supernatant (human PBMC; Donor 3, 200 (unit uncertain)): <LLOQ
- IL-6 concentration in supernatant (human PBMC; Donor 3, 200 (unit uncertain)): 649.98 pg/mL
- Effect on LPS stimulated cytokine secretion (human PBMC): did not appear to have any effect
- Effect on LPS stimulated cytokine secretion (human PBMC; listed as myricetin): no effect
- Average rate of reaction (RecQ helicase; 0.06 μg/mL): 119.381
- Rate (Triplicate) (RecQ helicase; 0.06 μg/mL): 156.0857 and 120.9143 and 81.14
- Fluorescence at 35 minutes, Run 2 (RecQ helicase; 0.2 μg/mL): 3820 RFU and 2972 RFU
- Fluorescence at time 0, Run 2 (RecQ helicase; 0.2 μg/mL): 5788 RFU and 4210 RFU
- Average rate of reaction (RecQ helicase; 0.2 μg/mL): 54.7
- Fluorescence at 35 minutes, Run 2 (RecQ helicase; 0.6 μg/mL): 4426 RFU and 3662 RFU
- Fluorescence at time 0, Run 2 (RecQ helicase; 0.6 μg/mL): 9244 RFU and 9661 RFU
- Average rate of reaction (RecQ helicase; 0.6 μg/mL): 39.68
- Fluorescence at 35 minutes, Run 2 (RecQ helicase; 2 μg/mL): 4289 RFU and 4448 RFU
- Fluorescence at time 0, Run 2 (RecQ helicase; 2 μg/mL): 8530 RFU and 9826 RFU
- Average rate of reaction (RecQ helicase; 2.0 μg/mL): 98.63
- Fluorescence at 35 minutes, Run 2 (RecQ helicase; 6 μg/mL): 3604 RFU and 4445 RFU
- Average rate of reaction (RecQ helicase; 6.0 μg/mL): 107.0439
- Fluorescence at 35 minutes, Run 2 (RecQ helicase; 20 μg/mL): 5025 RFU and 5336 RFU
- Fluorescence at time 0, Run 2 (RecQ helicase; 20 μg/mL): 5022 RFU and 5466 RFU
- Average rate of reaction (RecQ helicase; 20.0 μg/mL): 42.49
- Fluorescence at 35 minutes, Run 2 (RecQ helicase; 60 μg/mL): 4100 RFU and 3834 RFU
- Average rate of reaction (RecQ helicase; 60.0 μg/mL): 85
- Fluorescence at 35 minutes, Run 2 (RecQ helicase; 200 μg/mL): 2562 RFU and 2378 RFU
- Fluorescence at time 0, Run 2 (RecQ helicase; 200 μg/mL): 4555 RFU and 3893 RFU
- Average rate of reaction (RecQ helicase; 200.0 μg/mL): 69.46
- Rate (Triplicate) (RecQ helicase; 200.0 μg/mL): 81.98 and 52.34 and 74.0595
- Fluorescence at 0:00:00, Run 1 (RecQ helicase; TA 0.06 μg/mL (plate column 4, wells A-C)): 14946 RFU and 8957 RFU and 8828 RFU
- Fluorescence at 0:00:00, Run 1 (RecQ helicase; [1]): 10047 RFU and 9670 RFU and 6773 RFU
- Fluorescence at 0:35:00, Run 1 (RecQ helicase; [1]): 7144 RFU and 8199 RFU and 5403 RFU
- Fluorescence at 0:35:00, Run 1 (RecQ helicase; TA 0.6 μg/mL (plate column 6, wells A-C)): 7961 RFU and 4234 RFU and 5238 RFU
- Fluorescence at 0:00:00, Run 1 (RecQ helicase; [2]): 12406 RFU and 10235 RFU and 7932 RFU
- Fluorescence at 0:35:00, Run 1 (RecQ helicase; [2]): 8386 RFU and 5162 RFU and 6669 RFU
- Fluorescence at 0:00:00, Run 1 (RecQ helicase; [3]): 13174 RFU and 13286 RFU and 6908 RFU
- Fluorescence at 0:35:00, Run 1 (RecQ helicase; [3]): 9109 RFU and 7022 RFU and 6649 RFU
- Fluorescence at 0:35:00, Run 1 (RecQ helicase; TA 20 μg/mL (plate column 9, wells A-C)): 7412 RFU and 10338 RFU and 6947 RFU
- Fluorescence at 0:35:00, Run 1 (RecQ helicase; TA 60 μg/mL (plate column 10, wells A-C)): 8883 RFU and 7317 RFU and 6795 RFU
- Fluorescence at 0:00:00, Run 1 (RecQ helicase; [4]): 6608 RFU and 4850 RFU and 6196 RFU
- Fluorescence at 0:35:00, Run 1 (RecQ helicase; [4]): 5004 RFU and 3826 RFU and 4747 RFU
- Fluorescence at 0:00:00, Run 1 (RecQ helicase; [5]): 5165 RFU and 8965 RFU and 8207 RFU
- Fluorescence at 0:35:00, Run 1 (RecQ helicase; [5]): 3022 RFU and 4495 RFU and 5122 RFU
- Change in helicase activity compared to the DMSO control (RecQ helicase): no observed consistent change
- Change in helicase activity compared to the DMSO control (RecQ helicase; listed as myricetin): no effect
